Here are results for 26 molecules from patent US8980829B2, “Aryl glycoside compound, preparation method and use thereof” (Shanghai Yingli Science and Technology Co., Ltd, priority 2011, dated 2015).

The target of test [1] is human SGLT2 (Homo sapiens (Human), UniProt P31639). Nature of the test: Uptake assay of [14C]-AMG in Flp-In CHO cells stably expressing human SGLT2.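 As to all read-outs here: uptake in Na+ containing KRH buffer with compounds added in 1% DMSO, radioactivity of lysed cells read by scintillation counting, SGLT1 tested the same way in matching Flp-In CHO cells.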 In kind it is cell-based. As to conditions: for IC50: [14C]-AMG uptake, Flp-In CHO cells expressing human SGLT2, 1 hour at 37° C., n = 1-4; for Selectivity (SGLT1/SGLT2): ratio SGLT1 IC50 / SGLT2 IC50.
Sequence of human SGLT2 (P31639 whole entry): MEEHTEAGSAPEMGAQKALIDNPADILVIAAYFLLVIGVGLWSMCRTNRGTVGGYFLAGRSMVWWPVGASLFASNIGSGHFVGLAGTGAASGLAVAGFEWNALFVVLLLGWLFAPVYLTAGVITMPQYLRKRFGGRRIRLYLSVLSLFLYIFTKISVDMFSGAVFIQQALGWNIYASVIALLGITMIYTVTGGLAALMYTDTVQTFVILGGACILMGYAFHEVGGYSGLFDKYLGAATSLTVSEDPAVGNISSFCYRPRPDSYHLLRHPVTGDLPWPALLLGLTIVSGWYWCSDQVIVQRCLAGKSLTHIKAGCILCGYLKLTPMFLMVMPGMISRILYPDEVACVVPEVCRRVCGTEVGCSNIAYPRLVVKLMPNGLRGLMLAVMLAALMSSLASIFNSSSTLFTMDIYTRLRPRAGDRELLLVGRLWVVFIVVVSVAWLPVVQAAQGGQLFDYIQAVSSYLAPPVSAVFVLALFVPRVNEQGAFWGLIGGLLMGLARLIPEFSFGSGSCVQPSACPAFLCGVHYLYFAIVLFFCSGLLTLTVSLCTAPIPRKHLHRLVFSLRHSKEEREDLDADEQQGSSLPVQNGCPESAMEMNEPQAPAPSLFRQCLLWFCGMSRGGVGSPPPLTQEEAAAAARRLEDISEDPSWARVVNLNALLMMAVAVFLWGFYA
Test [2] deals with human SGLT1 (Homo sapiens (Human), UniProt P13866). As to the kind of experiment: Uptake assay of [14C]-AMG in Flp-In CHO cells stably expressing human SGLT1.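 Also: uptake run in sodium-containing KRH buffer with compounds added in DMSO (1% final), cell radioactivity read by scintillation counting after lysis.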 In kind it is cell-based. As to conditions: [14C]-AMG uptake, Flp-In CHO cells expressing human SGLT1, 1 hour at 37° C., n = 1-4.
Sequence of human SGLT1 (P13866 whole entry): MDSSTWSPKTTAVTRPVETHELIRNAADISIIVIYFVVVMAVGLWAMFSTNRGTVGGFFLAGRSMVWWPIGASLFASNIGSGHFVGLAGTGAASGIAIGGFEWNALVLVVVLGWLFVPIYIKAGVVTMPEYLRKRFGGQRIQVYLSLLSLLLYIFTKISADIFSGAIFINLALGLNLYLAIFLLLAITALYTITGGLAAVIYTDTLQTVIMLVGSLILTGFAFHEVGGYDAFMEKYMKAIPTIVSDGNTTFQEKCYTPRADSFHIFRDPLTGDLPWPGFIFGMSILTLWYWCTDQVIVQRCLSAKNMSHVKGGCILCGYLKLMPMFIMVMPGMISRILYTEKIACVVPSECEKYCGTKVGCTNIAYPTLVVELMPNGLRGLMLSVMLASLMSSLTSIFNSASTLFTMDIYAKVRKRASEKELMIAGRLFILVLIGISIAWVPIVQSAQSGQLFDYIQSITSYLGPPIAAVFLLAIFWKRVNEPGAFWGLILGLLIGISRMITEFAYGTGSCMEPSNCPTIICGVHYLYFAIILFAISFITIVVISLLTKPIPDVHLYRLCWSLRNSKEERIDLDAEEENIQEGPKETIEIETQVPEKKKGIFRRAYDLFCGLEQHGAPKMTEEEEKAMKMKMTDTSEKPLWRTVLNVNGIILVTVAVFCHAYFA
Test [3] has as its system C57 mice. Nature of the test: Urinary glucose excretion test. In kind it is in vivo. As to conditions: adult C57 mice, 10 mg/kg, 24-hours urine collection, average of 6 mice. On the procedure:
Urinary Glucose Excretion Test
Adult C57 mice administered the test compound (10 mg/kg) were placed in metabolism cages for 24-hours urine collection, and measure the total volume of urine. When the urine samples had been collected, they were immediately frozen in a −20° C. refrigerator, followed by detecting the glucose concentration in urine. Finally, the total glucose in animal urine was calculated according to the total urine volume. It was then converted into urinary glucose excretion (mg) per 200 g of body weight within 24 hours according to the weight of mice.

Turning to `CN1CC(COc2ccc(Cc3cc([C@@H]4O[C@H](CO)[C@@H](O)[C@H](O)[C@H]4O)ccc3Cl)cc2)C1` [Compound 15], in test [1], the IC50 is 23.6 nM and the “Selectivity (SGLT1/SGLT2)” value turned out to be 62. In test [2], this molecule registered an IC50 of 1460 nM.

`CC(C)(C)OC(=O)N1CC(COc2ccc(Cc3cc([C@@H]4O[C@H](CO)[C@@H](O)[C@H](O)[C@H]4O)ccc3Cl)cc2)C1` [Compound 13]: in test [1], the IC50 came out at 28.7 nM and the “Selectivity (SGLT1/SGLT2)” value is reported as 96. The IC50 in test [2] is 2760 nM.

Regarding `OC[C@H]1O[C@@H](c2ccc(Cl)c(Cc3ccc(OC4CCOC4)cc3)c2)[C@H](O)[C@@H](O)[C@@H]1O` (some centres unmarked) [EMPAGLIFLOZIN, reference compound], the “Urine Glucose Excretion (mg/200 g BW/24 h)” value (“Urine Glucose Excretion” below) in test [3] worked out at 1197 mg/200 g BW/24 h.

With `OC[C@H]1O[C@@H](c2ccc(Cl)c(Cc3ccc(OCC4CCO4)cc3)c2)[C@H](O)[C@@H](O)[C@@H]1O` (single isomer, unassigned) [Compound 2], the values for the IC50 in test [1] and in test [2] were 8.7 nM and 1640 nM, respectively. Besides, in test [1], the “Selectivity (SGLT1/SGLT2)” value stood at 188.

`OC[C@H]1O[C@@H](c2ccc(Cl)c(Cc3ccc(CCC4COC4)cc3)c2)[C@H](O)[C@@H](O)[C@@H]1O` [Compound 7]: in test [1], inhibition was half-maximal at 8.5 nM (IC50) and the “Selectivity (SGLT1/SGLT2)” value came out at 124. The molecule also yielded an IC50 in test [2] of 1060 nM.

On to `CCOc1ccc(Cc2cc([C@@H]3O[C@H](CO)[C@@H](O)[C@H](O)[C@H]3O)c(OCC3(F)COC3)cc2Cl)cc1` [Compound 24], for which, in test [1], it took 12 nM to reach half-maximal inhibition (IC50) and the “Selectivity (SGLT1/SGLT2)” value is recorded as 1424. In addition, in test [2], the IC50 was 17100 nM.

With `OC[C@H]1O[C@@H](c2ccc(Cl)c(Cc3ccc(OCC4(CF)COC4)cc3)c2)[C@H](O)[C@@H](O)[C@@H]1O` [Compound 20], the “Urine Glucose Excretion” value in test [3] is listed as 751 mg/200 g BW/24 h. In test [1], the IC50 was 3.7 nM and the “Selectivity (SGLT1/SGLT2)” value is 690. Besides, it took 2550 nM to reach half-maximal inhibition in test [2] (IC50).

For the molecule `OC[C@H]1O[C@@H](c2ccc(Cl)c(Cc3ccc(CC4(F)COC4)cc3)c2)[C@H](O)[C@@H](O)[C@@H]1O` [Compound 16], the “Urine Glucose Excretion” value in test [3] is on record as 1441 mg/200 g BW/24 h. Also, in test [1], the IC50 is 8.1 nM and the “Selectivity (SGLT1/SGLT2)” value came out at 306. The IC50 in test [2] stood at 2480 nM.

With `CC(=O)N1CC(COc2ccc(Cc3cc([C@@H]4O[C@H](CO)[C@@H](O)[C@H](O)[C@H]4O)ccc3Cl)cc2)C1` [Compound 17], the “Urine Glucose Excretion” value in test [3] came out at 180 mg/200 g BW/24 h. In test [1], the IC50 was 6.4 nM and the “Selectivity (SGLT1/SGLT2)” value stood at 73. For the same molecule, half-maximal inhibition in test [2] (IC50) required 469 nM.

Take `OC[C@H]1O[C@@H](c2ccc(Cl)c(Cc3ccc(OCCCC4COC4)cc3)c2)[C@H](O)[C@@H](O)[C@@H]1O` [Compound 22]: in test [1], inhibition was half-maximal at 1.7 nM (IC50) and the “Selectivity (SGLT1/SGLT2)” value is listed as 2911. Half-maximal inhibition in test [2] (IC50) required 4950 nM.

Turning to `OC[C@H]1O[C@@H](c2ccc(Cl)c(Cc3ccc(OCC4CNC4)cc3)c2)[C@H](O)[C@@H](O)[C@@H]1O` [Compound 14], the values for the IC50 in test [1] and in test [2] were 8.4 nM and 785 nM, respectively. Also, in test [1], the “Selectivity (SGLT1/SGLT2)” value is given as 93.

Regarding `[O-][S+]1CC(CCOc2ccc(Cc3cc([C@@H]4O[C@H](CO)[C@@H](O)[C@H](O)[C@H]4O)ccc3Cl)cc2)C1` (some centres unmarked) [Compound 11], in test [1], the IC50 is 6.8 nM and the “Selectivity (SGLT1/SGLT2)” value was 150. Further, in test [2], the IC50 is 1020 nM.

In the case of `CCOc1ccc(Cc2cc([C@@H]3O[C@H](CO)[C@@H](O)[C@H](O)[C@H]3O)c(OCC3CNC3)cc2Cl)cc1` [Compound 26], in test [1], 69.4 nM corresponded to half-maximal inhibition (IC50) and the “Selectivity (SGLT1/SGLT2)” value is reported as 28. In test [2], this molecule had an IC50 of 1950 nM.

On to `OC[C@H]1O[C@@H](c2ccc(Cl)c(Cc3ccc(OCC4(F)COC4)cc3)c2)[C@H](O)[C@@H](O)[C@@H]1O` [Compound 12], for which the “Urine Glucose Excretion” value in test [3] came to 1323 mg/200 g BW/24 h. Moreover, in test [1], half-maximal inhibition (IC50) was put at 6.5 nM and the “Selectivity (SGLT1/SGLT2)” value came to 320. In test [2], this molecule had an IC50 of 2080 nM.

For `OC[C@H]1O[C@@H](c2ccc(Cl)c(Cc3ccc(OCC4CCO4)cc3)c2)[C@H](O)[C@@H](O)[C@@H]1O` (single isomer, unassigned) [Compound 3], in test [1], the IC50 is 11.4 nM and the “Selectivity (SGLT1/SGLT2)” value amounted to 201. For the same molecule, in test [2], 2290 nM corresponded to half-maximal inhibition (IC50).

For the molecule `CCOc1ccc(Cc2cc([C@@H]3O[C@H](CO)[C@@H](O)[C@H](O)[C@H]3O)c(OCCCC3(F)COC3)cc2Cl)cc1` [Compound 25], the IC50 in test [1] came out at 12.3 nM; in test [2], 18800 nM. In test [1], the “Selectivity (SGLT1/SGLT2)” value stood at 1559.

Turning to `OC[C@H]1O[C@@H](c2ccc(Cl)c(Cc3ccc(OCCC4COC4)cc3)c2)[C@H](O)[C@@H](O)[C@@H]1O` [Compound 8], in test [1], the IC50 came out at 1.7 nM and the “Selectivity (SGLT1/SGLT2)” value is on record as 547. In test [2], this molecule registered an IC50 of 930 nM.

As for `OC[C@H]1O[C@@H](c2ccc(Cl)c(Cc3ccc(CC4COC4)cc3)c2)[C@H](O)[C@@H](O)[C@@H]1O` [Compound 6], the “Urine Glucose Excretion” value in test [3] stood at 735 mg/200 g BW/24 h. In addition, in test [1], the IC50 came out at 9.6 nM and the “Selectivity (SGLT1/SGLT2)” value was determined as 312. This molecule also had an IC50 in test [2] of 3000 nM.

Regarding `OC[C@H]1O[C@@H](c2ccc(Cl)c(Cc3ccc(OCCC4CSC4)cc3)c2)[C@H](O)[C@@H](O)[C@@H]1O` [Compound 10], the “Urine Glucose Excretion” value in test [3] amounted to 740 mg/200 g BW/24 h. Moreover, in test [1], half-maximal inhibition (IC50) was put at 7.4 nM and the “Selectivity (SGLT1/SGLT2)” value was 176. Half-maximal inhibition in test [2] (IC50) was put at 1300 nM.

Consider `OC[C@H]1O[C@@H](c2ccc(Cl)c(Cc3ccc(OCC4COC4)cc3)c2)[C@H](O)[C@@H](O)[C@@H]1O` [Compound 1], for which the “Urine Glucose Excretion” value in test [3] turned out to be 1333 mg/200 g BW/24 h. Further, in test [1], half-maximal inhibition (IC50) required 5.6 nM and the “Selectivity (SGLT1/SGLT2)” value amounted to 471. Further, it took 2640 nM to reach half-maximal inhibition in test [2] (IC50).

Regarding `OC[C@H]1O[C@@H](c2ccc(Cl)c(Cc3ccc(OCC4CN(c5ccc(F)cc5)C4)cc3)c2)[C@H](O)[C@@H](O)[C@@H]1O` [Compound 19], in test [1], the IC50 turned out to be 97.2 nM and the “Selectivity (SGLT1/SGLT2)” value was determined as 21. In test [2], this molecule displayed an IC50 of 1990 nM.

On to `CC1(COc2ccc(Cc3cc([C@@H]4O[C@H](CO)[C@@H](O)[C@H](O)[C@H]4O)ccc3Cl)cc2)COC1` [Compound 5], for which, in test [3], the “Urine Glucose Excretion” value was determined as 1050 mg/200 g BW/24 h. For the same molecule, in test [1], the IC50 came to 8.3 nM and the “Selectivity (SGLT1/SGLT2)” value turned out to be 95. The molecule further registered an IC50 in test [2] of 792 nM.

With `OC[C@H]1O[C@@H](c2ccc(Cl)c(Cc3ccc(OCCC4(F)COC4)cc3)c2)[C@H](O)[C@@H](O)[C@@H]1O` [Compound 9], the “Urine Glucose Excretion” value in test [3] was 1079 mg/200 g BW/24 h. Also, in test [1], the IC50 was determined as 7.5 nM and the “Selectivity (SGLT1/SGLT2)” value is reported as 159. In test [2], the IC50 was found to be 1190 nM.

`OC[C@H]1O[C@@H](c2ccc(Cl)c(Cc3ccc(OCCCC4(F)COC4)cc3)c2)[C@H](O)[C@@H](O)[C@@H]1O` [Compound 23]: in test [3], the “Urine Glucose Excretion” value turned out to be 1198 mg/200 g BW/24 h. Also, in test [1], the IC50 is 1.1 nM and the “Selectivity (SGLT1/SGLT2)” value turned out to be 1089. The same molecule gave an IC50 in test [2] of 1200 nM.

With `OC[C@H]1O[C@@H](c2ccc(Cl)c(Cc3ccc(OCC4CCO4)cc3)c2)[C@H](O)[C@@H](O)[C@@H]1O` (single isomer, unassigned) [Compound 4], in test [1], the 50% inhibitory concentration (IC50) was 4.9 nM and the “Selectivity (SGLT1/SGLT2)” value is recorded as 295. The IC50 in test [2] was 1450 nM.

On to `OC[C@H]1O[C@@H](c2ccc(Cl)c(Cc3ccc(OCC4CN(C5COC5)C4)cc3)c2)[C@H](O)[C@@H](O)[C@@H]1O` [Compound 18], for which the IC50 in test [1] was found to be 22 nM; in test [2], 2450 nM. Moreover, the “Selectivity (SGLT1/SGLT2)” value in test [1] is reported as 111.

By IC50 is commonly meant the midpoint of a concentration-inhibition curve. A high value points to a need for much substance.
